Patent publication US20040152783A1, “Controlled absorption of admixed thyroid hormone formulations” (priority 2002, published 2004)
Where two headings read alike, the source gives them in different places.

Experiment: Kinetics of T3 absorption after oral dosing in rats; total serum T3 by ELISA
Type: in vivo, Sprague-Dawley rats
Conditions: for Peak of Delta Curve: oral solution; for Peak of Delta Curve / Deltamax / delta AUC / Tmax: serum TT3; for Percent T3 sodium (AUC 0-24) / Percent T3 sodium (Deltamax) / Percent T3 sodium (Peak of Delta Curve) / Percent T3 sodium (Tmax) / AUC* (0-24) / Deltamax / delta AUC / Tmax: oral; for AUC* (0-24): from mean delta TT3 curve above 0 hour value
Protocol: Defined μg/kg doses were delivered as oral solutions in 0.5% sodium bicarbonate buffer. Rats were dosed immediately following 0 hour serum collection. Serum was collected from rats at two, four, six, nine, 12 and 24 hours after dosing. Total serum T3 concentrations were determined by ELISA using a commercially available kit (Total Triiodothyronine (total T3) ELISA KIT, product #1700, ALPHA DIAGNOSTIC™, San Antonio, Tex.).

[1] = Example 1, T3 sodium 12 μg/kg vs T4 sodium 162 plus T3 sodium 12 μg/kg (13.5:1)
[2] = Example 2, T3 sodium 6 μg/kg vs T4 sodium 54 plus T3 sodium 6 μg/kg (9:1)
[3] = Example 3, T3 sodium 4 μg/kg vs T4 sodium 16 plus T3 sodium 4 μg/kg (4:1)
[4] = Example 4, T3 sodium 4 μg/kg vs T4 sodium 4 plus T3 sodium 4 μg/kg (1:1)
[5] = Example 5, T3 sodium 15 μg/kg vs T4 sodium 6 plus T3 sodium 15 μg/kg (0.4:1)
[6] = Example 6, T3 sodium 15 μg/kg vs T4 sodium 1.5 plus T3 sodium 15 μg/kg (0.1:1)

N[C@@H](Cc1cc(I)c(Oc2ccc(O)c(I)c2)c(I)c1)C(=O)O [T3 sodium, liothyronine sodium]
Peak of Delta Curve (Example 1, T3 sodium 12 μg/kg alone vs T4 sodium 162 μg/kg plus T3 sodium 12 μg/kg (T4:T3 13.5:1)): 142 ng/dL | Percent T3 sodium (AUC 0-24) [1]: 100% | Percent T3 sodium (Deltamax) [1]: 100% | Percent T3 sodium (Peak of Delta Curve) [1]: 100% | Percent T3 sodium (Tmax) [1]: 100% | AUC* (0-24) [1]: 1,469 ng/dLh | Deltamax [1]: 156 ng/dL | delta AUC [1]: 1,471 ng/dL·hr | Peak of Delta Curve (Example 2, T3 sodium 6 μg/kg alone vs T4 sodium 54 μg/kg plus T3 sodium 6 μg/kg (T4:T3 9:1)): 232 ng/dL | Percent T3 sodium (AUC 0-24) [2]: 100% | Percent T3 sodium (Deltamax) [2]: 100% | Percent T3 sodium (Peak of Delta Curve) [2]: 100% | Percent T3 sodium (Tmax) [2]: 100% | AUC* (0-24) [2]: 2,212 ng/dLh | Deltamax [2]: 232 ng/dL | delta AUC [2]: 2,384 ng/dL·hr | Peak of Delta Curve (Example 3, T3 sodium 4 μg/kg alone vs T4 sodium 16 μg/kg plus T3 sodium 4 μg/kg (T4:T3 4:1)): 65 ng/dL | Percent T3 sodium (AUC 0-24) [3]: 100% | Percent T3 sodium (Deltamax) [3]: 100% | Percent T3 sodium (Peak of Delta Curve) [3]: 100% | Percent T3 sodium (Tmax) [3]: 100% | AUC* (0-24) [3]: 1,193 ng/dLh | Deltamax [3]: 69 ng/dL | delta AUC [3]: 1,193 ng/dL·hr | Peak of Delta Curve (Example 4, T3 sodium 4 μg/kg alone vs T4 sodium 4 μg/kg plus T3 sodium 4 μg/kg (T4:T3 1:1)): 65 ng/dL | Percent T3 sodium (AUC 0-24) [4]: 100% | Percent T3 sodium (Deltamax) [4]: 100% | Percent T3 sodium (Peak of Delta Curve) [4]: 100% | Percent T3 sodium (Tmax) [4]: 100% | AUC* (0-24) [4]: 1,193 ng/dLh | Deltamax [4]: 69 ng/dL | Tmax [4]: 2.4 h | delta AUC [4]: 1,193 ng/dL·hr | Peak of Delta Curve (Example 5, T3 sodium 15 μg/kg alone vs T4 sodium 6 μg/kg plus T3 sodium 15 μg/kg (T4:T3 0.4:1)): 167 ng/dL | Percent T3 sodium (AUC 0-24) [5]: 100% | Percent T3 sodium (Deltamax) [5]: 100% | Percent T3 sodium (Peak of Delta Curve) [5]: 100% | Percent T3 sodium (Tmax) [5]: 100% | AUC* (0-24) [5]: 1,732 ng/dLh | Deltamax [5]: 170 ng/dL | delta AUC [5]: 1,732 ng/dL·hr | Peak of Delta Curve (Example 6, T3 sodium 15 μg/kg alone vs T4 sodium 1.5 μg/kg plus T3 sodium 15 μg/kg (T4:T3 0.1:1)): 138 ng/dL | Percent T3 sodium (AUC 0-24) [6]: 100% | Percent T3 sodium (Deltamax) [6]: 100% | Percent T3 sodium (Peak of Delta Curve) [6]: 100% | Percent T3 sodium (Tmax) [6]: 100% | AUC* (0-24) [6]: 1,762 ng/dLh | Deltamax [6]: 146 ng/dL | delta AUC [6]: 1,762 ng/dL·hr | Tmax (Sprague-Dawley, rat, 15 ug/kg, Example 6, T3 sodium 15 μg/kg vs T4 sodium 1.5 plus T3 sodium 15 μg/kg (0.1:1), read-out: Tmax): 5.6 h | Tmax (Sprague-Dawley, rat, Example 1, T3 sodium 12 μg/kg vs T4 sodium 162 plus T3 sodium 12 μg/kg (13.5:1), read-out: Tmax): 5.2 h | Tmax (Sprague-Dawley, rat, Example 2, T3 sodium 6 μg/kg vs T4 sodium 54 plus T3 sodium 6 μg/kg (9:1), read-out: Tmax): 2 h | Tmax (Sprague-Dawley, rat, Example 3, T3 sodium 4 μg/kg vs T4 sodium 16 plus T3 sodium 4 μg/kg (4:1), read-out: Tmax): 2.4 h | Tmax (Sprague-Dawley, rat, Example 5, T3 sodium 15 μg/kg vs T4 sodium 6 plus T3 sodium 15 μg/kg (0.4:1), read-out: Tmax): 4.6 h
